System: MV-4-11 cells
Assay: Gene expression microarray analysis (Affymetrix PrimeView) and GSEA
Assay type: cell-based, human
Design: RFU PODN (11730768_x_at) / Fold change /veh PODN (11730768_x_at) / RFU LINC00158 (11744669_a_at) / Fold change /veh LINC00158 (11744669_a_at) / RFU DUSP10 (11751237_a_at) / Fold change /veh DUSP10 (11751237_a_at) / RFU ID3 (11757404_x_at) / Fold change /veh ID3 (11757404_x_at) / RFU PLEKHG5 (11737974_s_at) / Fold change /veh PLEKHG5 (11737974_s_at) / RFU LRRC4B (11730491_at) / Fold change /veh LRRC4B (11730491_at) / RFU GIMAP4 (11747438_a_at) / Fold change /veh GIMAP4 (11747438_a_at) / RFU KRT8 (11758183_x_at) / Fold change /veh KRT8 (11758183_x_at) / RFU CNN1 (11734310_a_at) / Fold change /veh CNN1 (11734310_a_at) / RFU VPS37D (11726825_at) / Fold change /veh VPS37D (11726825_at) / RFU C10orf10 (11716522_x_at) / Fold change /veh C10orf10 (11716522_x_at) / RFU KIR2DL2 /// KIR2DL4 /// KIR2DL5A /// KIR2DL5B /// KIR2DS1 /// KIR2DS2 /// KIR2DS3 /// KIR2DS4 /// KIR3DL3 /// KIR3DL3 /// KIR3DS1 (11738374_at) / Fold change /veh KIR2DL2 /// KIR2DL4 /// KIR2DL5A /// KIR2DL5B /// KIR2DS1 /// KIR2DS2 /// KIR2DS3 /// KIR2DS4 /// KIR3DL3 /// KIR3DL3 /// KIR3DS1 (11738374_at) / RFU C1QL1 (11718748_at) / Fold change /veh C1QL1 (11718748_at) / RFU TMPRSS4 (11747572_a_at) / Fold change /veh TMPRSS4 (11747572_a_at) / RFU HAMP (11756126_x_at) / Fold change /veh HAMP (11756126_x_at) / RFU RNFT2 (11725882_a_at) / Fold change /veh RNFT2 (11725882_a_at) / RFU NR4A2 (11747474_a_at) / Fold change /veh NR4A2 (11747474_a_at) / RFU ABCC12 (11746883_a_at) / Fold change /veh ABCC12 (11746883_a_at) / RFU TMEM136 (11760407_x_at) / Fold change /veh TMEM136 (11760407_x_at) / RFU CLDN22 /// WWC2 (11732394_at) / Fold change /veh CLDN22 /// WWC2 (11732394_at) / RFU HLA-DPB1 (11760878_x_at) / Fold change /veh HLA-DPB1 (11760878_x_at) / RFU SPINT1 (11716480_a_at) / Fold change /veh SPINT1 (11716480_a_at) / RFU GAP43 (11754022_s_at) / Fold change /veh GAP43 (11754022_s_at) / RFU A4GNT (11735810_at) / Fold change /veh A4GNT (11735810_at) / RFU PRB3 (11715151_x_at) / Fold change /veh PRB3 (11715151_x_at) / RFU TUBB4B (11761932_at) / Fold change /veh TUBB4B (11761932_at) / RFU CAPN14 (11732068_a_at) / Fold change /veh CAPN14 (11732068_a_at) / RFU TMCC2 (11721928_a_at) / Fold change /veh TMCC2 (11721928_a_at) / RFU IRGQ (11745062_a_at) / Fold change /veh IRGQ (11745062_a_at) / RFU FAM174B (11720279_a_at) / Fold change /veh FAM174B (11720279_a_at) / RFU TMPRSS4 (11748680_a_at) / Fold change /veh TMPRSS4 (11748680_a_at) / RFU FAM212B (11763350_a_at) / Fold change /veh FAM212B (11763350_a_at) / RFU PLEKHG5 (11743358_a_at) / Fold change /veh PLEKHG5 (11743358_a_at) / RFU ZSCAN30 (11745921_a_at) / Fold change /veh ZSCAN30 (11745921_a_at) / RFU CMKLR1 (11741424_a_at) / Fold change /veh CMKLR1 (11741424_a_at) / RFU LOC101060620 /// MAPK8IP1 (11723275_at) / Fold change /veh LOC101060620 /// MAPK8IP1 (11723275_at) / RFU SPTSSB (11747773_x_at) / Fold change /veh SPTSSB (11747773_x_at) / RFU PRSS12 (11739890_at) / Fold change /veh PRSS12 (11739890_at) / RFU BIN1 (11741810_x_at) / Fold change /veh BIN1 (11741810_x_at) / RFU WNT11 (11732464_a_at) / Fold change /veh WNT11 (11732464_a_at) / RFU C10orf10 (11716521_a_at) / Fold change /veh C10orf10 (11716521_a_at) / RFU C5orf56 (11738089_at) / Fold change /veh C5orf56 (11738089_at) / RFU CYB561 (11721691_x_at) / Fold change /veh CYB561 (11721691_x_at) / RFU ANKRD19P (11752326_a_at) / Fold change /veh ANKRD19P (11752326_a_at) / RFU OR2T12 /// OR2T33 /// OR2T8 (11738714_s_at) / Fold change /veh OR2T12 /// OR2T33 /// OR2T8 (11738714_s_at) / RFU VCAN (11748164_a_at) / Fold change /veh VCAN (11748164_a_at) / RFU JSRP1 (11732532_at) / Fold change /veh JSRP1 (11732532_at) / RFU KRTAP10-11 (11738290_x_at) / Fold change /veh KRTAP10-11 (11738290_x_at) / RFU MYO3A (11730013_a_at) / Fold change /veh MYO3A (11730013_a_at) / RFU EBF3 (11725865_a_at) / Fold change /veh EBF3 (11725865_a_at) / RFU CAMK2N1 (11719241_x_at) / Fold change /veh CAMK2N1 (11719241_x_at) / RFU C5orf56 (11738088_a_at) / Fold change /veh C5orf56 (11738088_a_at) / RFU OLFML3 (11715873_a_at) / Fold change /veh OLFML3 (11715873_a_at) / RFU LOC100653217 /// NTM (11731650_a_at) / Fold change /veh LOC100653217 /// NTM (11731650_a_at) / RFU MAPK11 (11762145_a_at) / Fold change /veh MAPK11 (11762145_a_at) / RFU FIZ1 (11724087_x_at) / Fold change /veh FIZ1 (11724087_x_at) / RFU OASL (11726364_x_at) / Fold change /veh OASL (11726364_x_at) / RFU SOX15 (11748057_x_at) / Fold change /veh SOX15 (11748057_x_at) / RFU CD79A (11719716_a_at) / Fold change /veh CD79A (11719716_a_at) / RFU HIST1H1D (11736915_at) / Fold change /veh HIST1H1D (11736915_at) / RFU CASKIN2 (11723855_a_at) / Fold change /veh CASKIN2 (11723855_a_at) / RFU LOC730098 (11760151_x_at) / Fold change /veh LOC730098 (11760151_x_at) / RFU OR4N2 (11742367_at) / Fold change /veh OR4N2 (11742367_at) / RFU PRRT2 (11749266_a_at) / Fold change /veh PRRT2 (11749266_a_at) / RFU SNX32 (11753110_a_at) / Fold change /veh SNX32 (11753110_a_at) / RFU CDHR5 (11726645_a_at) / Fold change /veh CDHR5 (11726645_a_at) / RFU RCAN1 (11760418_a_at) / Fold change /veh RCAN1 (11760418_a_at) / RFU FAM167A (11723789_a_at) / Fold change /veh FAM167A (11723789_a_at) / RFU FAM26E (11764081_at) / Fold change /veh FAM26E (11764081_at) / RFU ISYNA1 (11749810_s_at) / Fold change /veh ISYNA1 (11749810_s_at) / RFU ACY1 (11761880_at) / Fold change /veh ACY1 (11761880_at) / RFU 11764098_at / Fold change /veh 11764098_at / RFU SAMD14 (11745864_x_at) / Fold change /veh SAMD14 (11745864_x_at) / RFU NPB (11741838_a_at) / Fold change /veh NPB (11741838_a_at) / RFU TMPRSS6 (11731388_a_at) / Fold change /veh TMPRSS6 (11731388_a_at) / RFU KRTAP10-2 (11738614_at) / Fold change /veh KRTAP10-2 (11738614_at) / RFU ARHGAP8 /// PRR5-ARHGAP8 (11727945_x_at) / Fold change /veh ARHGAP8 /// PRR5-ARHGAP8 (11727945_x_at) / RFU KRTAP5-7 /// NADSYN1 (11734609_at) / Fold change /veh KRTAP5-7 /// NADSYN1 (11734609_at) / RFU RASL12 (11751679_a_at) / Fold change /veh RASL12 (11751679_a_at) / RFU CDKN2B (11736163_a_at) / Fold change /veh CDKN2B (11736163_a_at) / RFU PRF1 (11729649_at) / Fold change /veh PRF1 (11729649_at) / RFU, ZNF638 /// ZNF638-IT1 / Fold change vs veh, ZNF638 /// ZNF638-IT1 / RFU, PANK3 / Fold change vs veh, PANK3 / RFU, SH3YL1 / Fold change vs veh, SH3YL1 / RFU, ZEB2 / Fold change vs veh, ZEB2 / RFU, NRIP1 / Fold change vs veh, NRIP1 / RFU, PTTG1IP / Fold change vs veh, PTTG1IP / RFU, CAPN2 / Fold change vs veh, CAPN2 / RFU, MED14 / Fold change vs veh, MED14 / RFU, SNORA58 / Fold change vs veh, SNORA58 / RFU, C1orf63 / Fold change vs veh, C1orf63 / RFU, LRRFIP1 / Fold change vs veh, LRRFIP1 / RFU, NDUFAF7 / Fold change vs veh, NDUFAF7 / RFU, SLC12A2 / Fold change vs veh, SLC12A2 / RFU, IBTK / Fold change vs veh, IBTK / RFU, ESF1 / Fold change vs veh, ESF1 / Fold change vs veh, TMEM50B / RFU, TAOK1 / Fold change vs veh, TAOK1 / RFU, ACBD3 / Fold change vs veh, ACBD3 / RFU, TMA16 / Fold change vs veh, TMA16 / RFU, RWDD3 / Fold change vs veh, RWDD3 / RFU, BCAT1 / Fold change vs veh, BCAT1 / RFU, EDEM3 / Fold change vs veh, EDEM3 / RFU, TMEM33 / Fold change vs veh, TMEM33 / RFU, WDR75 / Fold change vs veh, WDR75 / RFU, AHCTF1 / Fold change vs veh, AHCTF1 / RFU, TFRC / Fold change vs veh, TFRC / RFU, ZDHHC17 / Fold change vs veh, ZDHHC17 / RFU, NOM1 / Fold change vs veh, NOM1 / RFU, ARL8B / Fold change vs veh, ARL8B / RFU, ZBTB11 / Fold change vs veh, ZBTB11 / RFU, TAMM41 / Fold change vs veh, TAMM41 / RFU, KIAA1704 /// LOC100996395 / Fold change vs veh, KIAA1704 /// LOC100996395 / RFU, ING1 / Fold change vs veh, ING1 / RFU, TRMT61B / Fold change vs veh, TRMT61B / RFU, FUBP3 / Fold change vs veh, FUBP3 / RFU, TP53 / Fold change vs veh, TP53 / RFU, TNKS2 / Fold change vs veh, TNKS2 / RFU, ZFP14 / Fold change vs veh, ZFP14 / RFU, ACTR2 / Fold change vs veh, ACTR2 / RFU, PPP3R1 / Fold change vs veh, PPP3R1 / RFU, PIK3R1 / Fold change vs veh, PIK3R1 / RFU, HNRNPA1 / Fold change vs veh, HNRNPA1 / RFU, RNF170 / Fold change vs veh, RNF170 / RFU, ZNF28 / Fold change vs veh, ZNF28 / RFU, RNGTT / Fold change vs veh, RNGTT / RFU, OGT / Fold change vs veh, OGT / RFU, BRD1 / Fold change vs veh, BRD1 / RFU, MARS / Fold change vs veh, MARS / RFU, ZNF655 / Fold change vs veh, ZNF655 / RFU, FAHD1 / Fold change vs veh, FAHD1 / RFU, BDP1 / Fold change vs veh, BDP1 / RFU, LRRCC1 / Fold change vs veh, LRRCC1 / RFU, ARID1A / Fold change vs veh, ARID1A / RFU, ZNF146 / Fold change vs veh, ZNF146 / RFU, ZNF330 / Fold change vs veh, ZNF330 / RFU, GPN3 / Fold change vs veh, GPN3 / RFU, C9orf123 / Fold change vs veh, C9orf123 / RFU, N4BP2L2 / Fold change vs veh, N4BP2L2 / RFU, ARFIP1 / Fold change vs veh, ARFIP1 / RFU, FAM179B / Fold change vs veh, FAM179B / RFU, BCL10 / Fold change vs veh, BCL10 / RFU, UHRF1BP1L / Fold change vs veh, UHRF1BP1L / RFU, BET1 / Fold change vs veh, BET1 / RFU, CNOT2 / Fold change vs veh, CNOT2 / RFU, ZNF268 / Fold change vs veh, ZNF268 / Fold change vs veh, ZNF507 / RFU, DGCR2 / Fold change vs veh, DGCR2 / RFU, WDSUB1 / Fold change vs veh, WDSUB1 / Fold change vs veh, HSP90B1 /// MIR3652 / RFU, ADSS / Fold change vs veh, ADSS / RFU, GK / Fold change vs veh, GK / RFU, ZNF148 / Fold change vs veh, ZNF148 / RFU, TAF9 / Fold change vs veh, TAF9 / RFU, SLC1A5 / Fold change vs veh, SLC1A5 / RFU, SLMO2 / Fold change vs veh, SLMO2 / RFU, ABCC4 / Fold change vs veh, ABCC4 / RFU, LOC101060439 /// RAP1B / Fold change vs veh, LOC101060439 /// RAP1B / RFU, RFX7 / Fold change vs veh, RFX7 / RFU, GTPBP10 / Fold change vs veh, GTPBP10 / RFU, CNEP1R1 / Fold change vs veh, CNEP1R1 / RFU, BIVM-ERCC5 /// ERCC5 / Fold change vs veh, BIVM-ERCC5 /// ERCC5 / RFU, ILF3 / Fold change vs veh, ILF3 / RFU 11762660_at / Fold change /veh 11762660_at / RFU VCAN (11757783_s_at) / Fold change /veh VCAN (11757783_s_at) / RFU DDX43 (11728927_at) / Fold change /veh DDX43 (11728927_at) / RFU KRT8 (11758188_x_at) / Fold change /veh KRT8 (11758188_x_at) / RFU NKD1 (11759106_at) / Fold change /veh NKD1 (11759106_at) / RFU SRD5A1 (11742802_a_at) / Fold change /veh SRD5A1 (11742802_a_at) / RFU TPSAB1 /// TPSB2 (11721975_s_at) / Fold change /veh TPSAB1 /// TPSB2 (11721975_s_at) / RFU GSTM3 (11746129_a_at) / Fold change /veh GSTM3 (11746129_a_at) / RFU IL23R (11737362_x_at) / Fold change /veh IL23R (11737362_x_at) / RFU TMEM51 (11727254_a_at) / Fold change /veh TMEM51 (11727254_a_at) / RFU PIWIL2 (11732686_x_at) / Fold change /veh PIWIL2 (11732686_x_at) / RFU ORM1 (11744905_x_at) / Fold change /veh ORM1 (11744905_x_at) / RFU CCDC152 (11743942_at) / Fold change /veh CCDC152 (11743942_at) / RFU ECM1 (11717891_a_at) / Fold change /veh ECM1 (11717891_a_at) / RFU IL23R (11748794_a_at) / Fold change /veh IL23R (11748794_a_at) / RFU TNFAIP8L3 (11732012_x_at) / Fold change /veh TNFAIP8L3 (11732012_x_at) / RFU MBOAT4 (11741988_at) / Fold change /veh MBOAT4 (11741988_at) / RFU 11764193_at / Fold change /veh 11764193_at / RFU TMEM53 (11763286_at) / Fold change /veh TMEM53 (11763286_at) / RFU MAGEB2 (11727129_at) / Fold change /veh MAGEB2 (11727129_at) / RFU TMEM200A (11744735_a_at) / Fold change /veh TMEM200A (11744735_a_at) / RFU CCDC152 (11751479_a_at) / Fold change /veh CCDC152 (11751479_a_at) / RFU FAM211A (11726209_a_at) / Fold change /veh FAM211A (11726209_a_at) / RFU RGS16 (11746705_a_at) / Fold change /veh RGS16 (11746705_a_at) / RFU VCAN (11755009_s_at) / Fold change /veh VCAN (11755009_s_at) / RFU RHOB (11743442_s_at) / Fold change /veh RHOB (11743442_s_at) / RFU RGS16 (11720943_a_at) / Fold change /veh RGS16 (11720943_a_at) / RFU RGS16 (11720944_at) / Fold change /veh RGS16 (11720944_at) / RFU, VPS4B / Fold change vs veh, VPS4B / RFU, CREB1 / Fold change vs veh, CREB1 / RFU, DNAJC13 / Fold change vs veh, DNAJC13 / RFU, GNAQ / Fold change vs veh, GNAQ / RFU, CDK5R1 / Fold change vs veh, CDK5R1 / RFU, ZRANB3 / Fold change vs veh, ZRANB3 / RFU, CUL4A / Fold change vs veh, CUL4A / RFU, CCNY / Fold change vs veh, CCNY / RFU, UFL1 / Fold change vs veh, UFL1 / RFU, COG3 / Fold change vs veh, COG3 / RFU, DIAPH2 / Fold change vs veh, DIAPH2 / RFU, SKA2 / Fold change vs veh, SKA2 / RFU, AFF3 / Fold change vs veh, AFF3 / RFU, LMF1 / Fold change vs veh, LMF1 / RFU, IPO11 / Fold change vs veh, IPO11 / RFU, DFFB / Fold change vs veh, DFFB / RFU, FOXP1 / Fold change vs veh, FOXP1 / RFU, CARD8 / Fold change vs veh, CARD8 / RFU, STRN3 / Fold change vs veh, STRN3 / RFU, ADK / Fold change vs veh, ADK / RFU, RASSF2 / Fold change vs veh, RASSF2 / RFU, WIPF1 / Fold change vs veh, WIPF1 / RFU, LARP1B / Fold change vs veh, LARP1B / RFU, RASA1 / Fold change vs veh, RASA1 / RFU, RB1 / Fold change vs veh, RB1 / RFU, PPFIA1 / Fold change vs veh, PPFIA1 / RFU, MAT2A / Fold change vs veh, MAT2A / RFU, CCT5 / Fold change vs veh, CCT5 / RFU, WDR92 / Fold change vs veh, WDR92 / RFU, CUX1 / Fold change vs veh, CUX1 / RFU, TTC7A / Fold change vs veh, TTC7A / RFU, TMEM135 / Fold change vs veh, TMEM135 / RFU, DEPTOR / Fold change vs veh, DEPTOR / RFU, CPM / Fold change vs veh, CPM / RFU, DNAJB6 / Fold change vs veh, DNAJB6 / RFU, CACNA2D3 / Fold change vs veh, CACNA2D3 / RFU, DTX4 / Fold change vs veh, DTX4 / RFU, TFCP2 / Fold change vs veh, TFCP2 / RFU, GMCL1 /// GMCL1P1 / Fold change vs veh, GMCL1 /// GMCL1P1 / RFU, AEBP2 / Fold change vs veh, AEBP2 / RFU, SNHG1 /// SNORD22 /// SNORD25 /// SNORD26 /// SNORD27 /// SNORD28 /// SNORD29 /// SNORD31 / Fold change vs veh, SNHG1 /// SNORD22 /// SNORD25 /// SNORD26 /// SNORD27 /// SNORD28 /// SNORD29 /// SNORD31 / Fold change (Aza/veh), C12orf56 (ProbeSet 11735607_a_at) / Fold change (ACY-1035/veh), C12orf56 (ProbeSet 11735607_a_at) / Fold change (Aza/veh), FGFR1OP (ProbeSet 11751329_s_at) / Fold change (ACY-1035/veh), FGFR1OP (ProbeSet 11751329_s_at) / Fold change (Aza/veh), VPS36 (ProbeSet 11739960_a_at) / Fold change (ACY-1035/veh), VPS36 (ProbeSet 11739960_a_at) / RFU SYPL1 (11715823_x_at) / Fold change /veh SYPL1 (11715823_x_at) / RFU IGFBP7 (11715501_s_at) / Fold change /veh IGFBP7 (11715501_s_at) / RFU REEP3 (11722064_at) / Fold change /veh REEP3 (11722064_at) / RFU IGLL1 (11728026_x_at) / Fold change /veh IGLL1 (11728026_x_at): dose or concentration left out as unconfirmed
Settings: ProbeSet 11732433_s_at; LIST B

SMILES: Nc1ccc(-c2cccs2)cc1NC(=O)c1ccc2c(c1)cc(C1CC1)n2CCN1CCOCC1 [ACY-1035]
- RFU, GK: 305.66 RFU
